Data on 73 compounds can be found in the SangsterLogP compilation.

Broadly, the logP is the decadic logarithm of the partition coefficient of the neutral form, usually between octanol and water. A low value points to a more hydrophilic compound.

A short description of data set [1]: method code SF-HPLC, from DOI: 10.1002/jps.1029, PMID: 11357176.

As to `Cc1c(C)c2cc3ccoc3cc2oc1=O`, the logP stood at 2.77.
On to `COc1c2occc2cc2ccc(=O)oc12`, for which, in data set [1], the logP amounted to 2.07.
`Cc1cc(=O)oc2c1ccc1occ(C)c12`: the logP came out at 2.81.
On the same count and under the same terms, under `Cc1oc2c(C)cc3c(C)cc(O)nc3c2c1C` stands 3.5; under `Cc1c(C)c2ccc3occ(C)c3c2oc1=O`, 3.25.
Still for that read-out and setting: to `Cc1oc2cc3oc(=O)ccc3c(C)c2c1C` belongs 3.27; to `O=c1ccc2ccc3occc3c2s1`, 2.58.
Same read-out and setting: under `Cc1cc(=O)oc2c(C)c3occc3cc12` stands 2.82.
For `Cc1oc2nc3oc(=O)c(C)c(C)c3cc2c1C`, the log partition coefficient (logP) was found to be 2.71.
On the same count and under the same terms, under `COc1c2oc(=O)c(C)cc2cc2c(C)c(C)oc12` stands 3.28; under `Cc1cc2c(cc(C)c3c(C)cc(=O)oc32)o1`, 3.36; under `Cc1cc2c(cc(C)c3ccc(=O)oc32)o1`, 2.92.
The same measure, in the same setting: under `Cc1cc2ccc(=O)oc2c2c(C)coc12` stands 2.88; under `Cc1c(C)c2cc3c(C)coc3nc2oc1=O`, 2.25.
Same read-out and setting: under `O=c1ccc2cc3ccsc3cc2o1` stands 2.27; under `Cc1coc2cc3oc(=O)ccc3cc12`, 2.47; under `Cc1cc2c(C)cc3oc(=O)cc(C)c3c2o1`, 3.25.
With `Cc1coc2nc3oc(=O)cc(C)c3cc12`, the logP came to 1.82.
Turning to `Cc1cc(=O)oc2c1cc(C)c1occc12`, the logP was determined as 2.79.
With `Cc1cc2c(ccc3c(C)cc(=O)oc32)o1`, the logP turned out to be 2.79.
The same measure, in the same setting: to `Cc1c2occc2cc2ccc(=O)oc12` belongs 2.48.
Still for that read-out and setting: to `Cc1cc(=O)[nH]c2c1cc(C)c1occ(C)c12` belongs 3.13; to `Cc1cc2ccc3occc3c2oc1=O`, 2.49; to `Cc1coc2ccc3ccc(=O)oc3c12`, 2.51.
`Cc1coc2cc3oc(=O)cc(C)c3cc12`: the logP stood at 2.76.
On the same count and under the same terms, to `Cc1cc2c(o1)c(C)c(C)c1ccc(=O)oc12` belongs 3.26; to `Cc1cc2ccc3occ(C)c3c2oc1=O`, 2.97.
In turn, `O=c1ccc2cc3ccoc3cc2s1` returned a logP of 2.61.
Still for that read-out and setting: to `Cc1cc2cc3c(C)cc(=O)oc3cc2o1` belongs 2.82.
On the same count and under the same terms, under `Cc1oc2ccc3ccc(=O)oc3c2c1C` stands 2.94; under `Cc1cc2c(o1)c(C)cc1c(C)cc(=O)n(C)c12`, 3.43.
As for `Cc1coc2cc3oc(=O)ccc3c(C)c12`, the logP came to 2.79.
On the same count and under the same terms, under `Cc1cc2occ(C)c2c2oc(=O)ccc12` stands 2.92; under `Cc1cc2c(o1)c(C)cc1ccc(=O)oc12`, 2.85.
Same read-out and setting: to `Cc1c(C)c2cc(C)c3occc3c2oc1=O` belongs 3.23; to `Cc1sc2c(C)cc3c(C)cc(=O)oc3c2c1C`, 4.09; to `Cc1cc(=O)oc2c1cc(C)c1occ(C)c12`, 3.23.
On to `O=c1ccc2cc3ccoc3cc2o1`, for which, in data set [1], the logP was found to be 2.08.
Regarding `Cc1c(C)c2cc3ccoc3c(C)c2oc1=O`, the logP came out at 3.25.
Take `Cc1oc2cc3oc(=O)cc(C)c3cc2c1C`: the logP turned out to be 3.22.
As to `Cc1cc2ccc(=O)oc2c2ccoc12`, the logP came to 2.43.
On to `Cc1cc2occc2c2oc(=O)ccc12`, for which the log partition coefficient (logP) amounted to 2.5.
On the same count and under the same terms, under `Cc1coc2c(C)c3oc(=O)cc(C)c3cc12` stands 3.25; under `Cc1cc(=O)n(C)c2c1cc(C)c1occ(C)c12`, 3.3.
The same measure, in the same setting: under `Cc1cc2c(ccc3cc(C)c(=O)oc32)o1` stands 2.97.
Regarding `Cc1oc2cc3oc(=O)ncc3cc2c1C`, the logP amounted to 1.97.
On the same count and under the same terms, under `Cc1oc2ccc3c(C)cc(=O)oc3c2c1C` stands 3.28; under `Cc1sc2cc3oc(=O)cc(C)c3cc2c1C`, 3.48; under `O=c1ccc2cc3ccsc3cc2s1`, 2.96.
The same measure, in the same setting: to `Cc1oc2c(C)cc3ccc(=O)oc3c2c1C` belongs 3.34; to `O=c1ccc2ccc3occc3c2[nH]1`, 1.82; to `Cc1cc2c(o1)c(C)cc1c(C)cc(=O)oc12`, 3.15.
The same measure, in the same setting: under `Cc1cc2c(ccc3c(C)c(C)c(=O)oc32)o1` stands 3.27.
The compound `Cc1c(C)c2cc3c(C)coc3c(C)c2oc1=O` yielded a logP of 3.62.
The same measure, in the same setting: to `Cc1cc2c(ccc3c(C)cc(=O)n(C)c32)o1` belongs 3.08; to `Cc1cc2c(C)c3ccc(=O)oc3cc2o1`, 2.84.
The same measure, in the same setting: to `Cc1coc2nc3oc(=O)cc(C)c3c(C)c12` belongs 2.25; to `Cc1cc2c(ccc3c(C)c(C)c(=O)n(C)c32)o1`, 3.54; to `Cc1c(C)c2occc2c2oc(=O)ccc12`, 2.84.
Same read-out and setting: under `Cc1cc2cc3ccc(=O)oc3c(C)c2o1` stands 2.93.
The compound `COc1c2occc2cc2ccc(=O)sc12` came in with a log partition coefficient (logP) of 2.66.
Still for that read-out and setting: under `Cc1c2ccoc2cc2oc(=O)ccc12` stands 2.33.
Still for that read-out and setting: to `Cc1coc2c1c(C)cc1oc(=O)cc(C)c12` belongs 3.28; to `Cc1coc2c(C)c3oc(=O)ccc3cc12`, 2.81.
The same measure, in the same setting: under `Cc1oc2ccc3c(C)cc(=O)[nH]c3c2c1C` stands 3.18; under `Cc1sc2ccc3c(C)cc(=O)oc3c2c1C`, 3.65.
`Cc1cc2cc3c(C)cc(=O)oc3c(C)c2o1` gave a logP of 3.25.
The same measure, in the same setting: to `Cc1oc2cc3oc(=O)ccc3cc2c1C` belongs 2.93; to `Cc1cc2c(ccc3ccc(=O)oc32)o1`, 2.49.
Still for that read-out and setting: to `Cc1cc(=O)oc2c1ccc1occc12` belongs 2.34; to `Cc1oc2nc3oc(=O)ccc3c(C)c2c1C`, 2.19; to `Cc1c2oc(=O)ccc2c(C)c2c(C)coc12`, 3.35.
`Cc1coc2nc3oc(=O)ccc3c(C)c12` had a logP of 1.73.
